{"source": "PubChem BioAssay AID2060605", "about": "(Molecular Pharmacology Branch, DTP, NCI, 2025)", "system": "947758-054-R-J2-PDC spheroid growth, percent test/control", "test": "Anticancer human tumor 947758-054-R-J2-PDC patient-derived colon adenocarcinoma cell line growth inhibition [CLK]", "conditions": "spheroids with HUVEC and MSC; for viability, T/C: stronger effect = lower value", "description": "A high-throughput screen of multi-cell type tumor spheroids was designed to identify active combinations of […] and targeted small molecules. Complex spheroids include a stromal component modeled by human endothelial cells (HUVEC) and fibroblasts modeled by human mesenchymal stem cells (MSCs). The concentration ranges selected for each drug and investigational agent were based upon clinically achievable concentrations if the clinical Cmax of the agent was known.\nCompounds. The drugs and investigational agents: cirtuvivint (SM08502; NSC835563), CC-671 (NSC850746), vemurafenib (NSC761431), tapotoclax (NSC804041), sotorasib (NSC818433), adagrasib (NSC831453), MRTX-1133 (NSC836407), BAY2416964 (NSC825713), copanlisib (NSC816437), inavolisib (NSC800729), abemaciclib (NSC768073), osimertinib (NSC779217), entinostat (NSC756642), eltanexor (KPT-8602, NSC794443), venetoclax (NSC766270), ceralasertib (NSC777638), bortezomib (NSC756655), olaparib (NSC753686), talazoparib (NSC767125), alisertib (NSC759677), peposertib (NSC802822), gemcitabine (NSC613327), 5-fluorouracil (NSC19893), SN-38 (NSC673596), oxaliplatin (NSC266046), paclitaxel (NSC125973), and doxorubicin (NSC123127), were obtained from the National Cancer Institute (NCI) Developmental Therapeutics Program Chemical Repository. The FDA-approved anticancer drug set is available from the Developmental Therapeutics Program at https://dtp.cancer.gov/organization/dscb/obtaining/available plates.htm. […] The stock solutions were prepared in dimethyl sulfoxide (DMSO, Sigma-Aldrich, St. Louis, MO, cat. D2650), except for the platinum complexes which were prepared in saline (Quality Biological, Gaithersburg, MD, cat. 114-055-101), at 800-fold the tested concentration and stored at -70 degrees C prior to their use. All drugs and investigational agents were tested over a range starting from a high concentration at or near the clinical Cmax and decreasing in half-log increments. If the clinical Cmax for an agent had not been determined, the highest concentration tested was 10 microM.\nCell Culture. All cells were maintained in an incubator at 37 degrees C and 5% CO2 with 95% humidity. The PDC lines were cultured according to standard operating procedures established by the NCI PDMR. Briefly, all PDCs were thawed and cultured in Matrigel-coated flasks prepared with a working solution of 1X Ham's F-12 nutrient mix, without supplementation (Invitrogen, Waltham, MA, cat. 11765054), 100 U/mL penicillin-streptomycin (Invitrogen, cat. 15140122), and 2.5% Matrigel (Corning Inc., Corning, NY, cat. 354248) for the first three passages. The 947758-054-R-J2-PDC line was cultured in 6B/Colon 1A media, which includes advanced DMEM/F-12 (Thermo Fisher Scientific, cat. 12634028), 10 mM HEPES (Thermo Fisher Scientific, cat. 15630080), 1X GlutaMAX supplement (Thermo Fisher Scientific, cat. 35050061), 0.1 mg/mL primocin (InvivoGen, cat. ant-pm-2), 10% defined fetal bovine serum, heat inactivated (HyClone Laboratories Inc., cat. SH30070.03HI), 1.25 mM N-Acetyl-L-cysteine (Sigma-Aldrich, cat. A9165), 10 mM nicotinamide (Sigma-Aldrich, cat. N0636), 1X B-27 supplement (Thermo Fisher Scientific, cat. 17504044), 1X N-2 supplement (Thermo Fisher Scientific, cat. 17502048), and 10 microM Y-27632 dihydrochloride (Tocris Bioscience, cat. 1254). The 876862-298-R-J1-PDC was cultured in 6E media, which includes all 6B/Colon 1A media components plus 50% L-WRN conditioned media (ATCC, cat. CRL-3276), 50 ng/mL recombinant human EGF recombinant protein (hEGF; Thermo Fisher Scientific, cat. PHG0311), 10 ng/mL recombinant human fibroblast growth factor 10 (hGFG-10; PeproTech, cat. 100-26), 1 ng/mL recombinant human fibroblast growth factor 2 (hFGF-2; PeproTech, cat. 100-18B), and 1 µM prostaglandin E2 (PGE2; Tocris, cat. 2296). The 227483-062-R1-J1-PDC line was cultured in Panc media, containing all 6E components except hFGF-2, with the addition of 500 nM SB-431542 (Selleckchem, cat. S1067) and 10 nM gastrin (Tocris, cat. 3006). […]", "note": "pIC50: −log10 of the molar value. “And” between values parts separate entries of the source, which are not always exact repeats. Equal entries are not always repeated.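 Further: spheroids exposed to compounds for one week before readout.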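 Wherever viability, T/C is given: 100% = DMSO vehicle control wells.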", "data": [{"smiles": "Cn1ncnc1[C@H]1c2n[nH]c(=O)c3cc(F)cc(c23)N[C@@H]1c1ccc(F)cc1", "note": "+ CN1CCN(c2cc(C(=O)Nc3cc4cc(-c5cnn(C)c5)ccc4cn3)ccn2)CC1", "values": [{"measurement": "pIC50", "setting": "curve of first compound, second compound 0.0316 µM", "value": "< 7.00"}, {"measurement": "pIC50", "setting": "curve of first compound, second compound 0.1 µM", "value": "< 7.00"}, {"measurement": "pIC50", "setting": "curve of first compound, second compound 0.316 µM", "value": "> 9.50"}, {"measurement": "pIC50", "setting": "curve of first compound, second compound 1 µM", "value": "> 9.50"}, {"measurement": "pIC50", "setting": "curve of first compound, second compound 3.16 µM", "value": "> 9.50"}, {"measurement": "pIC50", "setting": "curve of first compound, second compound 10 µM", "value": "> 9.50"}, {"measurement": "viability, T/C", "setting": "second compound 0.0316 µM, first compound 0.000316 µM", "value": 141, "unit": "%"}, {"measurement": "viability, T/C", "setting": "second compound 0.0316 µM, first compound 0.001 µM", "value": 155, "unit": "%"}, {"measurement": "viability, T/C", "setting": "second compound 0.0316 µM, first compound 0.00316 µM", "value": 157, "unit": "%"}, {"measurement": "viability, T/C", "setting": "second compound 0.0316 µM, first compound 0.01 µM", "value": 107, "unit": "%"}, {"measurement": "viability, T/C", "setting": "second compound 0.0316 µM, first compound 0.0316 µM", "value": 133, "unit": "%"}, {"measurement": "viability, T/C", "setting": "second compound 0.0316 µM, first compound 0.1 µM", "value": 197, "unit": "%"}, {"measurement": "viability, T/C", "setting": "second compound 0.1 µM, first compound 0.000316 µM", "value": 161, "unit": "%"}, {"measurement": "viability, T/C", "setting": "second compound 0.1 µM, first compound 0.001 µM", "value": 171, "unit": "%"}, {"measurement": "viability, T/C", "setting": "second compound 0.1 µM, first compound 0.00316 µM", "value": 149, "unit": "%"}, {"measurement": "viability, T/C", "setting": "second compound 0.1 µM, first compound 0.01 µM", "value": 134, "unit": "%"}, {"measurement": "viability, T/C", "setting": "second compound 0.1 µM, first compound 0.0316 µM", "value": 181, "unit": "%"}, {"measurement": "viability, T/C", "setting": "second compound 0.1 µM, first compound 0.1 µM", "value": 145, "unit": "%"}, {"measurement": "viability, T/C", "setting": "second compound 0.316 µM, first compound 0.000316 µM", "value": 4.7, "unit": "%"}, {"measurement": "viability, T/C", "setting": "second compound 0.316 µM, first compound 0.001 µM", "value": 6.84, "unit": "%"}, {"measurement": "viability, T/C", "setting": "second compound 0.316 µM, first compound 0.00316 µM", "value": 5.57, "unit": "%"}, {"measurement": "viability, T/C", "setting": "second compound 0.316 µM, first compound 0.01 µM", "value": 4.75, "unit": "%"}, {"measurement": "viability, T/C", "setting": "second compound 0.316 µM, first compound 0.0316 µM", "value": 5.66, "unit": "%"}, {"measurement": "viability, T/C", "setting": "second compound 0.316 µM, first compound 0.1 µM", "value": 4.51, "unit": "%"}, {"measurement": "viability, T/C", "setting": "second compound 1 µM, first compound 0.000316 µM", "value": 0.15, "unit": "%"}, {"measurement": "viability, T/C", "setting": "second compound 1 µM, first compound 0.001 µM", "value": 0.15, "unit": "%"}, {"measurement": "viability, T/C", "setting": "second compound 1 µM, first compound 0.00316 µM", "value": 1.79, "unit": "%"}, {"measurement": "viability, T/C", "setting": "second compound 1 µM, first compound 0.01 µM", "value": 0.11, "unit": "%"}, {"measurement": "viability, T/C", "setting": "second compound 1 µM, first compound 0.0316 µM", "value": 0.18, "unit": "%"}, {"measurement": "viability, T/C", "setting": "second compound 1 µM, first compound 0.1 µM", "value": 1.95, "unit": "%"}, {"measurement": "viability, T/C", "setting": "second compound 3.16 µM, first compound 0.000316 µM", "value": 0.37, "unit": "%"}, {"measurement": "viability, T/C", "setting": "second compound 3.16 µM, first compound 0.001 µM", "value": 0.17, "unit": "%"}, {"measurement": "viability, T/C", "setting": "second compound 3.16 µM, first compound 0.00316 µM", "value": 0.17, "unit": "%"}, {"measurement": "viability, T/C", "setting": "second compound 3.16 µM, first compound 0.01 µM", "value": 0.13, "unit": "%"}, {"measurement": "viability, T/C", "setting": "second compound 3.16 µM, first compound 0.0316 µM", "value": 0.37, "unit": "%"}, {"measurement": "viability, T/C", "setting": "second compound 3.16 µM, first compound 0.1 µM", "value": 1.28, "unit": "%"}, {"measurement": "viability, T/C", "setting": "second compound 10 µM, first compound 0.000316 µM", "value": 0.25, "unit": "%"}, {"measurement": "viability, T/C", "setting": "second compound 10 µM, first compound 0.001 µM", "value": 2.6, "unit": "%"}, {"measurement": "viability, T/C", "setting": "second compound 10 µM, first compound 0.00316 µM", "value": 0.52, "unit": "%"}, {"measurement": "viability, T/C", "setting": "second compound 10 µM, first compound 0.01 µM", "value": 0.26, "unit": "%"}, {"measurement": "viability, T/C", "setting": "second compound 10 µM, first compound 0.0316 µM", "value": 0.26, "unit": "%"}, {"measurement": "viability, T/C", "setting": "second compound 10 µM, first compound 0.1 µM", "value": 2.18, "unit": "%"}]}, {"smiles": "O=c1[nH]cc(F)c(=O)[nH]1", "values": [{"measurement": "viability, T/C", "setting": "compound 0.0316 µM", "value": "91.8% and 91.2%"}, {"measurement": "viability, T/C", "setting": "compound 0.1 µM", "value": "103% and 99%"}, {"measurement": "viability, T/C", "setting": "compound 0.316 µM", "value": "129% and 86.8%"}, {"measurement": "viability, T/C", "setting": "compound 1 µM", "value": "54.9% and 55.9%"}, {"measurement": "viability, T/C", "setting": "compound 3.16 µM", "value": "34.4% and 37.1%"}, {"measurement": "viability, T/C", "setting": "compound 10 µM", "value": "31.2% and 36.5%"}, {"measurement": "pIC50", "setting": "curve of compound", "value": "5.89 and 5.84"}]}]}
